In patent publication US7563789B2, “1-Adamantyl chalcones for the treatment of proliferative disorders” (priority 2002, dated 2009):
Like-named read-outs stand apart in the source and are kept apart here.

Tests used:
[1] = tested on: MCF-7 (ER-positive) human breast cancer cell line; assay: cells
Protocol: 1. A dose response curve for compounds, series I, II, III, IV, over a concentration range of 1 mM to 1 nM was prepared in order to detect the doses where possible biological activity might exist. Biological activity was determined by relative LC50 values of these agents.
(§1) 2. The compounds in series I, II, III, and IV were examined against two different types of breast cancer cell lines which included estrogen receptor positive (MCF-7) and estrogen receptor negative (MDA-MB435) cell lines.
(§2) 3. Toxicity of the compounds for normal breast epithelial cells were examined by comparing LC50 values in normal breast epithelial cell line (MCF-10) against LC50 values in cancer cell lines. LC50 is the concentration that is lethal to 50 percent of the cells. LC50 values were estimated from a dose response graph.
(§3) Two human breast cancers cell lines (MCF-7 and MDA-MB435) and a normal breast epithelial cell line (MCF-10) were obtained from ATCC (American Type Culture Collection) to test against the series of compounds and the data were examined for the compounds' relative antiproliferation profiles. All of these cell lines were derived from epithelial tissue. These cell lines were selected because they allowed our laboratory to investigate the effects of the compounds in: 1) breast neoplasms whose growth is stimulated by the presence of estrogen, MCF-7 (ER-positive); 2) Breast neoplasms whose growth is not stimulated by estrogen MDA-MB435 (ER-negative); and 3) A non-cancer cell line (MCF-10) to compare relative toxicities of the compounds.

[2] = tested on: MDA-MB435 (ER-negative) human breast cancer cell line; assay: Dose response / cell viability (LC50) in MDA-MB435 breast cancer cells
Protocol: 1. […] Biological activity was determined by relative LC50 values of these agents.
as §1, §2, §3

[3] = tested on: TGF stimulated growth of MDA-MB 435 cells
Protocol: 4. The possible mechanism of action of these compounds was explored by examining the ability of these agents to reverse growth factor stimulated proliferation. The ability of these compounds to attenuate EGF and TGF stimulated growth was tested.
(§4) Both MCF-7 and MDA-MB435 cells contain EGF-R and TGF-R. In an effort to examine the role of EGF-R and TGF-R in the proliferation of MCF-7 and MDA-MB435, these cells were stimulated to growth stimulatory at 50 percent (GS50) values.
(§5) In all cases 10 ml of growth factor was administered at a concentration of 1 ng/ml.

[4] = tested on: normal breast epithelial cell line MCF-10; assay: Toxicity for normal breast epithelial cells; type: cell-based; details: MCF-10 cells; highest concentration tested (1 mM); average values
Protocol: 3. […] LC50 values were estimated from a dose response graph.
The relative toxicity of the synthesized compounds (47a-e) against normal breast cells was studied by exposing normal breast epithelial cell line MCF-10 to our synthesized compounds in concentration ranges from 1 nM to 1 mM. These cells were likewise exposed to equivalent concentrations of Tamoxifen, Genestein, and Doxyrubicin. […] At concentrations lower than 10^−7 M, these compounds appeared to enhance the viability of cells.

[5] = tested on: EGF stimulated growth of MDA-MB435 cells; assay: Reversal of EGF stimulated growth of MDA-MB435 cells; type: cell-based; details: EGF (1 ng/ml) serum and non-serum stimulated growth of MDA-MB435 cells; 10^−9 to 10^−3 M
Protocol: (§6) The possible mechanism of action of these compounds was explored by examining the ability of these agents to reverse growth factor stimulated proliferation. The ability of these compounds to attenuate EGF and TGF stimulated growth was tested.
as §4, §5

[6] = tested on: TGF-α stimulated growth of MCF-7 cells; assay: Reversal of TGF-α stimulated growth of MCF-7 cells; type: cell-based
Protocol: as §6, §4, §5

[7] = tested on: EGF stimulated growth of MCF-7 cells; type: cell-based, human
Protocol: as §6, §4, §5

[8] = tested on: Normal human mammary epithelial (HME) cells stimulated by EGF; details: read-out: concentration at which cell growth is inhibited by 50% (IC50); cited from earlier work
[9] = Homo sapiens, MCF7, read-out: LC50

CC(C)c1ccc(/C=C/C(=O)C23CC4CC(CC(C4)C2)C3)cc1 [Compound 43f]
decrease of cell viability [1]: 20% | effect on cell viability (in words) ([2]; MDA-MB435 cells): altered cell viability only at much higher concentrations than required for MCF-7 cells

O=C(/C=C/c1ccccn1)C12CC3CC(CC(C3)C1)C2 [Compound 47a]
concentration reversing stimulated growth back to control values ([3]; TGF (1 ng/ml) non-serum stimulated growth of MDA-MB 435 cells): 10 µM | concentration reversing stimulated growth back to control values ([3]; TGF (1 ng/ml) serum stimulated growth of MDA-MB 435 cells): 50 µM | % cell viability [4]: 103% | reversal of stimulated growth (in words) [5]: Neither EGF (1 ng/ml) serum nor non-serum stimulated growth of MDA-MB435 cells was reversed | CC50 ([6]; MCF-7, TGF 1 ng/ml, non-serum stimulated, reversal value, read-out: LC50 Data for Administered Drug, Non-Serum Stimulated): 50 µM | reversal of stimulated growth (in words) ([6]; TGF-α serum and non-serum stimulated growth of MCF-7 cells, 10^−9 to 10^−3 M): neither TGF-α serum stimulated nor non-serum stimulated growth of MCF-7 cells significantly reversed | IC50 ([7]; EGF-non serum stimulated growth of MCF-7 cells, read-out: IC50, reversal of stimulated growth back to control values): 50 µM | concentration reversing stimulated growth back to control values ([7]; EGF-serum stimulated growth of MCF-7 cells): 10 µM

O=C(/C=C/c1cccnc1)C12CC3CC(CC(C3)C1)C2 [Compound 47b]
% cell viability [4]: 124% | CC50 [2]: 5 µM

O=C(/C=C/c1ccncc1)C12CC3CC(CC(C3)C1)C2 [Compound 47c]
% cell viability [4]: 102%

Cc1cccc(/C=C/C(=O)C23CC4CC(CC(C4)C2)C3)n1 [Compound 47d]
% cell viability [4]: 94%

O=C(/C=C/c1ccnc2ccccc12)C12CC3CC(CC(C3)C1)C2 [Compound 47e]
% cell viability [4]: 98% | CC50 [1]: 50 µM | LC50 increase over tamoxifen ([1]; MCF-7 cells, versus tamoxifen): 10 fold

COc1cccc2c1C(=O)c1c(O)c3c(c(O)c1C2=O)C[C@@](O)(C(=O)CO)C[C@@H]3O[C@H]1C[C@H](N)[C@H](O)[C@H](C)O1 [Doxyrubicin]
CC50 [1, 9]: 500 µM

O=c1c(-c2ccc(O)cc2)coc2cc(O)cc(O)c12 [Genestein, Genistein]
IC50 [8]: 1 µM | CC50 ([2]; Homo sapiens, MDA-MB-435, read-out: LC50): 5000 µM | LC50 (in words) ([2]; MDA-MB435 cells, in the concentration range measured (1 mM to 1 nM)): no LC50 was obtained

CC/C(=C(\c1ccccc1)c1ccc(OCCN(C)C)cc1)c1ccccc1 [Tamoxifen]
CC50 [1, 9]: 500 µM | effect on cell viability (in words) ([2]; MDA-MB435 cells): ineffective at lower concentrations
